Converted amounts (≈) assume the structure as drawn. Read-outs that look alike come from different tables or passages of the source.
Assays:
P. aeruginosa LpxC = P. aeruginosa LpxC (Pseudomonas aeruginosa (strain ATCC 15692 / DSM 22644 / CIP 104116 / JCM 14847 / LMG 12228 / 1C / PRS 101 / PAO1), UniProt P47205); experiment: P. aeruginosa LpxC Inhibition Assay; assay type: biochemical; details: 1 nM P. aeruginosa LpxC, 2 μM substrate, LC-MS/MS; read-out: PA LpxC IC50
From the text: The P. aeruginosa LpxC protein is produced according to the general method of Hyland et al (Journal of Bacteriology 1997 179, 2029-2037: Cloning, expression and purification of UDP-3-O-acyl-GIcNAc deacetylase from Pseudomonas aeruginosa: a metalloamidase of the lipid A biosynthesis pathway). The LC-MS/MS method for quantitation of LpxC product was developed using an Agilent 1200 Capillary HPLC system coupled to an Applied Biosystems MDS Sciex 4000QTRAP mass spectrometer. Both instruments are controlled using the Applied Biosystems MDS Sciex Analyst software. LpxC reaction product (UDP-3-O—(R-3-hydroxyacyl)-glucosamine) was produced by hydrolysis of LpxC substrate catalyzed by P.a. LpxC and purified using reversed phase chromatography on a Phenomenex Luna C18(2) 4.6×50 mm column. An LpxC product calibration curve was generated to evaluate the sensitivity and dynamic range of the LC-MS/MS method. Briefly, compounds are pre-incubated with 1 nM P. aeruginosa LpxC for 30 min. at room temperature. Reactions are initiated by the addition of 2 μM UDP-3-O—(R-3-hydroxydecanoyl)-GIcNAc. Reactions are conducted in a 384-well plate with a total volume of 50 μL in each well containing 50 mM Sodium phosphate pH 7.5, 0.005% Trition X-100 for 20 min at room temperature. After quenching with 1.8% HOAc (5 μL of a 20% HOAc added to each well), reaction mixtures are analyzed using the LC-MS/MS method and peak areas are transformed into product concentration using a LpxC product calibration curve. Total activity (0% inhibition control) is obtained from reactions with no inhibitors and 100% inhibition control is the background using quenched samples before reaction starts. For IC50 determinations, peak areas are converted to percent inhibition in Microsoft Excel. Percent inhibition values are plotted vs. log compound concentration using XLfit. Data is fit to the four-parameter logistic equation using the non-linear regression algorithm in XLfit to return the IC50 and hill slope values.

P. aeruginosa PAO1 = experiment: Susceptibility Testing (MIC, broth microdilution); assay type: cell-based, Pseudomonas aeruginosa; details: Pseudomonas aeruginosa, PAO1, 20 h, read-out: PAO1 MIC
Experimental: Bacterial isolates were cultivated from −70° C. frozen stocks by two consecutive overnight passages at 35° C. in ambient air on 5% blood agar (Remel, Lenexa, Kans.). Quality control and P. aeruginosa ATCC 27853) is from the American Type Culture Collection (ATCC; Rockville, Md.) and PAO1 was received from Dr. K. Poole.
Minimal Inhibitory Concentrations (MICs) were determined by the broth microdilution method in accordance with Clinical and Laboratories Institute (CLSI) guidelines. In brief, fresh bacterial overnight cultures were resuspended in sterile saline, adjusted to a 0.5 McFarland turbidity standard and then diluted […] in cation adjusted Mueller-Hinton Broth II (MHB; Remel BBL) to yield a final inoculum of approximately 5×10^5 colony-forming units (CFU)/mL. Two-fold serial dilutions of compounds were prepared in 100% dimethyl sulfoxide (DMSO) at 100-fold the highest final assay concentration; the resulting dilution series of compounds were diluted 1:10 with sterile water. Ten μl of the drug dilution series in 10% DMSO was transferred to microtiter wells and 90 μl of bacterial suspension was inoculated into the wells. All inoculated microdilution trays were incubated in ambient air at […] for 20 hours. Following incubation, assay plates were read in a microtiter plate reader at 600 nm and visually inspected to confirm the MIC endpoint well with the OD value. The lowest concentration of the compound that prevented visible growth was recorded as the MIC. Performance of the assay was monitored by testing ciprofloxacin against laboratory quality control strains in accordance with guidelines of the CLSI.

[1] = P. aeruginosa PAO1, broth microdilution, 20 hours

C[C@@](C[C@H]1CC(c2ccc(C#CCCF)cc2)=NO1)(C(=O)NO)S(C)(=O)=O [Compound 22, (R)-3-((R)-3-(4-(4-fluorobut-1-yn-1-yl)phenyl)-4,5-dihydroisoxazol-5-yl)-N-hydroxy-2-methyl-2-(methylsulfonyl)propanamide]
IC50 (P. aeruginosa LpxC): < 0.5 nM | MIC (P. aeruginosa PAO1; [1]): 0.5 µg/mL (≈ 1.26 µM)

CCCc1ccc(C2=NO[C@@H](C[C@](C)(C(=O)NO)S(C)(=O)=O)C2)cc1 [Compound 23, (R)—N-hydroxy-2-methyl-2-(methylsulfonyl)-3-((R)-3-(4-propylphenyl)-4,5-dihydroisoxazol-5-yl)propanamide]
IC50 (P. aeruginosa LpxC): < 0.5 nM | MIC (P. aeruginosa PAO1; [1]): 0.5 µg/mL (≈ 1.36 µM)

C/C=C/c1ccc(C2=NO[C@@H](C[C@](C)(C(=O)NO)S(C)(=O)=O)C2)cc1 [Compound 24, (R)—N-hydroxy-2-methyl-2-(methylsulfonyl)-3-((R)-3-(4-((E)-prop-1-en-1-yl)phenyl)-4,5-dihydroisoxazol-5-yl)propanamide]
IC50 (P. aeruginosa LpxC): 0.8 nM | MIC (P. aeruginosa PAO1; [1]): 0.5 µg/mL (≈ 1.36 µM)

C/C=C(\F)c1ccc(C2=NO[C@@H](C[C@](C)(C(=O)NO)S(C)(=O)=O)C2)cc1 [Compound 29, (R)-3-((R)-3-(4-((Z)-1-fluoroprop-1-en-1-yl)phenyl)-4,5-dihydroisoxazol-5-yl)-N-hydroxy-2-methyl-2-(methylsulfonyl)propanamide]
IC50 (P. aeruginosa LpxC): 0.6 nM | MIC (P. aeruginosa PAO1; [1]): 0.125 µg/mL (≈ 0.325 µM)

CC(O)C#CC#Cc1ccc(C2=NO[C@@H](C[C@](C)(C(=O)NO)S(C)(=O)=O)C2)cc1 (stereo partly drawn) [Compound 30, (2R)—N-hydroxy-3-((5R)-3-(4-(5-hydroxyhexa-1,3-diyn-1-yl)phenyl)-4,5-dihydroisoxazol-5-yl)-2-methyl-2-(methylsulfonyl)propanamide]
IC50 (P. aeruginosa LpxC): 0.5 nM | MIC (P. aeruginosa PAO1; [1]): 0.06 µg/mL (≈ 0.143 µM)

CCc1ccc(C2=NO[C@@H](C[C@](C)(C(=O)NO)S(C)(=O)=O)C2)cc1 [Compound 31, (R)-3-((R)-3-(4-ethylphenyl)-4,5-dihydroisoxazol-5-yl)-N-hydroxy-2-methyl-2-(methylsulfonyl)propanamide]
IC50 (P. aeruginosa LpxC): 1 nM | MIC (P. aeruginosa PAO1; [1]): 0.22 µg/mL (≈ 0.621 µM)

CCSc1ccc(C2=NO[C@@H](C[C@](C)(C(=O)NO)S(C)(=O)=O)C2)cc1 [Compound 32, (R)-3-((R)-3-(4-(ethylthio)phenyl)-4,5-dihydroisoxazol-5-yl)-N-hydroxy-2-methyl-2-(methylsulfonyl)propanamide]
IC50 (P. aeruginosa LpxC): 0.9 nM | MIC (P. aeruginosa PAO1; [1]): 0.4 µg/mL (≈ 1.03 µM)

C[C@@](C[C@H]1CC(c2ccc(CCCF)cc2)=NO1)(C(=O)NO)S(C)(=O)=O [Compound 33, (R)-3-((R)-3-(4-(3-fluoropropyl)phenyl)-4,5-dihydroisoxazol-5-yl)-N-hydroxy-2-methyl-2-(methylsulfonyl) propanamide]
IC50 (P. aeruginosa LpxC): 2 nM | MIC (P. aeruginosa PAO1): 0.5 µg/mL (≈ 1.29 µM)

C[C@@](C[C@H]1CC(c2ccc(CCCCF)cc2)=NO1)(C(=O)NO)S(C)(=O)=O [Compound 34, (R)-3-((R)-3-(4-(4-fluorobutyl)phenyl)-4,5-dihydroisoxazol-5-yl)-N-hydroxy-2-methyl-2-(methylsulfonyl) propanamide]
IC50 (P. aeruginosa LpxC): 2 nM | MIC (P. aeruginosa PAO1; [1]): 0.5 µg/mL (≈ 1.25 µM)

CC(C)(O)[C@H]1C[C@H](C#Cc2ccc(C3=NO[C@@H](C[C@](C)(C(=O)NO)S(C)(=O)=O)C3)cc2)C1 [Compound 39A, (R)—N-hydroxy-3-((R)-3-(4-(((1 r,3R)-3-(2-hydroxypropan-2-yl)cyclobutyl)ethynyl)phenyl)-4,5-dihydroisoxazol-5-yl)-2-methyl-2-(methylsulfonyl)propanamide]
IC50 (P. aeruginosa LpxC): 0.5 nM | MIC (P. aeruginosa PAO1; [1]): 0.5 µg/mL (≈ 1.08 µM)

CC(C)(O)[C@H]1C[C@@H](C#Cc2ccc(C3=NO[C@@H](C[C@](C)(C(=O)NO)S(C)(=O)=O)C3)cc2)C1 [Compound 39B, (R)—N-hydroxy-3-((R)-3-(4-(((1 s,3S)-3-(2-hydroxypropan-2-yl)cyclobutyl)ethynyl)phenyl)-4,5-dihydroisoxazol-5-yl)-2-methyl-2-(methylsulfonyl)propanamide]
IC50 (P. aeruginosa LpxC): 2 nM | MIC (P. aeruginosa PAO1; [1]): 1 µg/mL (≈ 2.16 µM)

C[C@@](C[C@H]1CC(c2ccc(-c3ccc(CCO)cc3)cc2)=NO1)(C(=O)NO)S(C)(=O)=O [Compound 40, (R)—N-hydroxy-3-((R)-3-(4′-(2-hydroxyethyl)-[1,1′-biphenyl]-4-yl)-4,5-dihydroisoxazol-5-yl)-2-methyl-2-(methylsulfonyl)]
IC50 (P. aeruginosa LpxC): 0.5 nM | MIC (P. aeruginosa PAO1; [1]): 0.16 µg/mL (≈ 0.358 µM)

C[C@@](C[C@H]1CC(c2ccc(-c3ccc(CO)cc3)cc2)=NO1)(C(=O)NO)S(C)(=O)=O [Compound 41, (R)—N-hydroxy-3-((R)-3-(4′-(hydroxymethyl)-[1,1′-biphenyl]-4-yl)-4,5-dihydroisoxazol-5-yl)-2-methyl-2-(methylsulfonyl)]
IC50 (P. aeruginosa LpxC): 0.5 nM | MIC (P. aeruginosa PAO1; [1]): 0.125 µg/mL (≈ 0.289 µM)

C[C@@](C[C@H]1CC(c2ccc(-c3ccncc3F)cc2)=NO1)(C(=O)NO)S(C)(=O)=O [Compound 42, (R)-3-((R)-3-(4-(3-fluoropyridin-4-yl)phenyl)-4,5-dihydroisoxazol-5-yl)-N-hydroxy-2-methyl-2-(methylsulfonyl)propanamide]
IC50 (P. aeruginosa LpxC): 0.5 nM | MIC (P. aeruginosa PAO1; [1]): 0.25 µg/mL (≈ 0.593 µM)

C[C@@](C[C@H]1CC(c2ccc(-n3nccn3)cc2)=NO1)(C(=O)NO)S(C)(=O)=O [Compound 43, (R)-3-((R)-3-(4-(2H-1,2,3-triazol-2-yl)phenyl)-4,5-dihydroisoxazol-5-yl)-N-hydroxy-2-methyl-2-(methylsulfonyl)propanamide]
IC50 (P. aeruginosa LpxC): 5 nM | MIC (P. aeruginosa PAO1; [1]): 1.4 µg/mL (≈ 3.56 µM)

COC1CC(C#Cc2ccc(C3=NO[C@@H](C[C@](C)(C(=O)NO)S(C)(=O)=O)C3)cc2)C1 (stereo partly drawn) [Compound 44, (R)—N-hydroxy-3-((R)-3-(4-((3-methoxycyclobutyl)ethynyl)phenyl)-4,5-dihydroisoxazol-5-yl)-2-methyl-2-(methylsulfonyl)propanamide]
IC50 (P. aeruginosa LpxC): 0.8 nM | MIC (P. aeruginosa PAO1; [1]): 0.5 µg/mL (≈ 1.15 µM)

C[C@@H](O)Cc1ccc(-c2ccc(C3=NO[C@@H](C[C@](C)(C(=O)NO)S(C)(=O)=O)C3)cc2)cc1 [Compound 45, (R)—N-hydroxy-3-((R)-3-(4′-((R)-2-hydroxypropyl)-[1,1′-biphenyl]-4-yl)-4,5-dihydroisoxazol-5-yl)-2-methyl-2-(methylsulfonyl)]
IC50 (P. aeruginosa LpxC): 0.6 nM | MIC (P. aeruginosa PAO1; [1]): 0.16 µg/mL (≈ 0.347 µM)

C[C@H](O)Cc1ccc(-c2ccc(C3=NO[C@@H](C[C@](C)(C(=O)NO)S(C)(=O)=O)C3)cc2)cc1 [Compound 46, (R)—N-hydroxy-3-((R)-3-(4′-((S)-2-hydroxypropyl)-[1,1′-biphenyl]-4-yl)-4,5-dihydroisoxazol-5-yl)-2-methyl-2-(methylsulfonyl)]
IC50 (P. aeruginosa LpxC): 1 nM | MIC (P. aeruginosa PAO1; [1]): 0.125 µg/mL (≈ 0.271 µM)

C[C@@](C[C@H]1CC(c2ccc(-c3ccc(CN4CCOCC4)cc3)cc2)=NO1)(C(=O)NO)S(C)(=O)=O [Compound 47, (R)—N-hydroxy-2-methyl-2-(methylsulfonyl)-3-((R)-3-(4′-(morpholinomethyl)-[1,1′-biphenyl]-4-yl)-4,5-dihydroisoxazol-5-yl)]
IC50 (P. aeruginosa LpxC): 0.6 nM | MIC (P. aeruginosa PAO1; [1]): 0.35 µg/mL (≈ 0.698 µM)

COCCOc1ccc(-c2ccc(C3=NO[C@@H](C[C@](C)(C(=O)NO)S(C)(=O)=O)C3)cc2)cc1 [Compound 48, (R)—N-hydroxy-3-((R)-3-(4′-(2-methoxyethoxy)-[1,1′-biphenyl]-4-yl)-4,5-dihydroisoxazol-5-yl)-2-methyl-2-(methylsulfonyl)propanamide]
IC50 (P. aeruginosa LpxC): 1 nM | MIC (P. aeruginosa PAO1; [1]): 0.25 µg/mL (≈ 0.525 µM)

C[C@@H](O)c1ccc(-c2ccc(C3=NO[C@@H](C[C@](C)(C(=O)NO)S(C)(=O)=O)C3)cc2)cc1 [Compound 49, (R)—N-hydroxy-3-((R)-3-(4′-((R)-1-hydroxyethyl)-[1,1′-biphenyl]-4-yl)-4,5-dihydroisoxazol-5-yl)-2-methyl-2-(methylsulfonyl)]
IC50 (P. aeruginosa LpxC): 1 nM | MIC (P. aeruginosa PAO1; [1]): 0.25 µg/mL (≈ 0.56 µM)

Reference: US9718792B2, “Isoxazoline hydroxamic acid derivatives as LpxC inhibitors” (priority 2014, dated 2017)
